{"source": "ChEMBL document CHEMBL5729615", "about": "“Inhibitors of protein arginine methyltransferase 5 (PRMT5), pharmaceutical products thereof, and methods thereof” (2023)", "biological_target": "PRMT5/MEP50 complex (Homo sapiens, UniProt O14744)", "sequence (O14744 whole entry)": "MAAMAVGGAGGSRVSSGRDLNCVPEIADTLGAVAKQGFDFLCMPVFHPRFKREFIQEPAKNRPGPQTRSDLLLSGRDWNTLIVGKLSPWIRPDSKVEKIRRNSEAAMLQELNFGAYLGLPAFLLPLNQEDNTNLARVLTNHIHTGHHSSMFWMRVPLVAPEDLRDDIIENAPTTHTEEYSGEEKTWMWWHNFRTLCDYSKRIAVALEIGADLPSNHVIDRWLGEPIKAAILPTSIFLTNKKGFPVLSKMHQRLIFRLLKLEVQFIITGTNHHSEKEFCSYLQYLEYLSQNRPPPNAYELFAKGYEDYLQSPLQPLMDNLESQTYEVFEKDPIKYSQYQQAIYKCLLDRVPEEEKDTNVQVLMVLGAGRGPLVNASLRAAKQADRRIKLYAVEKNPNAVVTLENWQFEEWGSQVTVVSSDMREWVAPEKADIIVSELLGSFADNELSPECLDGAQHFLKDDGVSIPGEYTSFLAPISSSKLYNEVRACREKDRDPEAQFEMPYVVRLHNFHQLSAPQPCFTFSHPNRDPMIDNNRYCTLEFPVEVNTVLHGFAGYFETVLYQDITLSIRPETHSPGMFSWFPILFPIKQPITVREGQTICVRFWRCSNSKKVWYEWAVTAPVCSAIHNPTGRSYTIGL", "sequence (Q9BQA1 whole entry, further chain)": "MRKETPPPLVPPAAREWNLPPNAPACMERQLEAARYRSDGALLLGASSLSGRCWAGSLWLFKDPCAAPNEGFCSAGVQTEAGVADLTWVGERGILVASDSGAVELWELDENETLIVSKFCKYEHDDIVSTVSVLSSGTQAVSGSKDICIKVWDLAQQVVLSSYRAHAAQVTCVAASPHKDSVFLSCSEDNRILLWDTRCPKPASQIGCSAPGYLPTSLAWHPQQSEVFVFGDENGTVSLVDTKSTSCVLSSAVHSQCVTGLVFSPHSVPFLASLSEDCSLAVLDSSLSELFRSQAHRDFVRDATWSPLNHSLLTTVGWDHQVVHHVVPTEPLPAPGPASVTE", "assay": "2.5 μL of compound solution in the assay buffer with 4% DMSO and 5 μL of PRMT5/MRP50 complex/SAM mixture solution in the assay buffer which was pre-incubated for 30 minutes were added into a white low volume 384 well microtiter plate. This mixture solution was incubated for 15 minutes with gentle shaking at room temperature. Methyl transfer reaction was initiated by adding 2.5 μL of Biotin-H4 (1-21) peptide substrate solution in the assay buffer. […] The reaction was allowed to perform for 120 minutes in dark with gentle shaking at room temperature after which 5 μL of Anti-H4R3-Me AlphaLISA acceptor beads in detection buffer from the manufacturer was added into the reaction mixture followed by incubation for 60 minutes. 10 μL of Streptavidin labeled AlphaLISA donor beads in detection buffer was added into the mixture followed by 30 minute incubation. Final acceptor and donor beads concentrations were 10 μg/mL.", "format": "protein-complex assay", "note": "pIC50: −log10 of the molar value."}
{"compound": "O=C1c2cc(NC3CCC3)ccc2CCN1CC(O)CN1CCc2ccccc2C1", "note": "(stereo unspecified)", "values": [{"measurement": "pIC50", "result": 6.63}]}
